Assay results taken from patent publication US10214540B2, “Compound having agonistic activity on somatostatin receptor, and use thereof for medical purposes” (ONO PHARMACEUTICAL CO., LTD., priority 2012, dated 2019).

Tests used:
[1] = tested on: Growth Hormone (GH) secretion; experiment: Evaluation of Growth Hormone (GH) secretory inhibitory activity using rat (GHRH-evoked); assay type: in vivo
Method: Evaluation of Growth Hormone (GH) secretory inhibitory activity using rat.
Test compounds dissolved in vehicle (distillated water (Otsuka jouryuusui, Otsuka Pharmaceutical Factory, Inc.) or vehicle only was administered to rat (7-week-old, male Crl: CD (SD) IGS rat (CHARLES RIVER LABORATORIES JAPAN, INC.)) orally, and 27 min. later, 50 mg/kg of sodium pentobarbital (Somunopentil® Kyoritsu Seiyaku) was administered by tail vein injection to be anesthetized. Three minutes after administration of sodium pentobarbital, 0.01 mg/kg of growth hormone-releasing hormone (GHRH, Bachem) was administered by tail vein injection to evoke GH secretion. To measure blood concentration of GH, 0.2 mL blood sample from cervical vein was collected 5 minutes after administration of GHRH. The blood samples were treated with centrifugation at 13,000 g at 4° C. for 5 min. to obtain plasma sample. Blood concentration of GH was determined by Rat/Mouse Growth Hormone ELISA (Millipore) according to the procedure manual.
Test compounds dissolved in vehicle (distillated water (Otsuka jouryuusui, Otsuka Pharmaceutical Factory, Inc.) or vehicle only was administered to rat (7-week-old, male Crl: CD (SD) IGS rat (CHARLES RIVER LABORATORIES JAPAN, INC.)) orally, and 7 hours 57 minutes later, 50 mg/kg of sodium pentobarbital (Somunopentil® Kyoritsu Seiyaku) was administered by tail vein injection to be anesthetized. Three min. after administration of sodium pentobarbital, 0.01 mg/kg of growth hormone-releasing hormone (GHRH, Bachem) was given by tail vein injection to evoke GH secretion. Procedure after that was same as [Procedure (A)]

[2] = tested on: cultured human hepatocyte; experiment: Evaluation of the cell toxicity using cultured human hepatocyte (ATP, Celltiter-Glo); assay type: cell-based; conditions: IC50 of Biological Example 4 / EC50 of Biological Example 1
Method: (§1) Evaluation of the cell toxicity using cultured human hepatocyte.
(§2) Frozen adherent human hepatocyte was thawed and suspended in hepatocyte cultured medium (HCM) purchased from Lonza, and then seeded in 96 wells plate coated by collagen. The hepatocytes were cultured overnight in the incubator (5% carbon dioxide, 95% air, 37° C.) and its medium was replaced with medium including test compounds ([…]) and cultured for 24 hours more. The cell toxicity was evaluated by measurement of ATP concentration in the cells. Specifically, using Promega Celltiter-Glo luminescent assay kit made by Promega KK, the cells were dissolved in an accompanying assay buffer and the ATP concentration released from the cells was determined by an emission of light of the luciferin-luciferase enzyme activity. The emission of light was measured by Molecular device's SpectraMax plate reader. A degree of toxicity was shown 50% inhibitory compound concentration of the emission of light (IC50).

[3] = as above; assay type: cell-based; conditions: cultured adherent human hepatocytes (thawed from frozen); cultured human hepatocytes, 24 hours, ATP concentration; read-out: IC50 (50% inhibitory compound concentration of the emission of light, cell toxicity)
Method: as §1, §2

human SSTR2 = target: T1, human SSTR2 (Homo sapiens, UniProt P30874); experiment: Evaluation of SSTR2 agonist activity using human SSTR2 expressing cells (inhibition of Forskolin-stimulated cAMP production in SSTR2-CHO-K1); assay type: cell-based; conditions: read-out: EC50 of agonist activity against human SSTR2
T1 construct: Myc; expressed in transfected cells
T1 sequence (P30874 whole entry): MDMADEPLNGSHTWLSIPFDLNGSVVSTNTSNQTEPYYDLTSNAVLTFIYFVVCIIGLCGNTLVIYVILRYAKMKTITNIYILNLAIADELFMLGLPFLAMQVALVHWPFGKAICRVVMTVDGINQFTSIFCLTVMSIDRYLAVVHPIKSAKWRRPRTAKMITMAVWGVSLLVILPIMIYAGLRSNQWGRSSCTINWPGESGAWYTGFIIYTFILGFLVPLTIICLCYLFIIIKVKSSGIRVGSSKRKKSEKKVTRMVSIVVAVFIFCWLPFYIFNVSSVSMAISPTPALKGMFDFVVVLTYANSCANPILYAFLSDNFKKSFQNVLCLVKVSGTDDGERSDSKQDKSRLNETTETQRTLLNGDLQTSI
Method: Evaluation of SSTR2 Agonist Activity Using Human SSTR2 Expressing Cells
CHO-K1 (−) were cultured using Ham's F-12 (including FBS (10%), penicillin (100 U/mL) and streptomycin (0.1 mg/mL)) as medium. The transduced cells were cultured using the medium above with geneticin (1 mg/ml).
The plasmid pIRESneo-Myc/hSSTR2 was transduced into CHO-K1 (−) cell using Lipofectamine 2000 (Invitrogen). After 48 hours, the medium was changed to the medium including 1 mg/mL Geneticin, overexpressing cells were selected and stably overexpressing cells (SSTR2-CHO-K1) were established.
Human SSTR2 agonist activity of test compounds was evaluated by following procedure using inhibition activity against intracellular cyclic AMP (cAMP) production stimulated by Forskolin as an indicator. The SSTR2-CHO-K1 cells suspended in Ham's F-12 medium (including fetal bovine serum (10%), penicillin (100 U/mL), streptomycin (0.1 mg/mL)) including 0.25 mg/mL Geneticin was seeded in 96 wells plate (4.0×10^4 cells/0.1 mL/1 well). After 1 day, the medium was removed and the cells were washed with 0.1 mL of wash buffer solution [0.1% bovine serum albumin (BSA), Hank's Balanced Salt Solution (HBSS) including 20 mmol/L 4-(2-hydroxyethyl)-1-piperazine ethanesulfonic acid (HEPES)] twice. To the cells added 0.06 mL/well assay buffer [500 nmol/L 3-isobutyl-1-methylxanthine (IBMX), 0.1% BSA, 20 mmol/L HBSS including HEPES], and incubated for 15 min. under 5% CO2 and 37° C. Next, to the cells added 0.06 mL/well assay buffer including test compounds of the double concentration of final concentration and 0.02 mmol/L Forskolin, and incubated for 30 min. under 5% CO2 and 37° C. After that, to the cells added 0.12 mL/well Assay/Lysis buffer included with cAMP-Screen® kit (Applied Biosystems®), and incubated for 30 min. under 5% CO2 and 37° C. The concentration of c-AMP is determined by ELISA test according to manual included with the kit.

gastric acid secretion = experiment: Evaluation of the gastric-acid secretion inhibitory activity using rat (gastric outlet tied off); assay type: in vivo; conditions: dose of 0.3 mg/kg, subcutaneously
Method: Evaluation of the gastric-acid secretion inhibitory activity using rat.
After closing the laparotomy department, vehicle only (saline (Otsuka seishokuchu, Otsuka Pharmaceutical Factory, Inc.) or test compounds which were dissolved in vehicle were administered subcutaneously immediately, and the rats were recovered from anesthesia. After 2 hours from tying gastric outlet, the rats were treated with abdominal operation under isoflurane anesthesia again, pinched cardiac end of the stomach with forceps and exsanguinated to death. After stomach contents were centrifugalized at 500 g for 15 min. and the supernatant was separated as gastric fluid, the volume of gastric fluid was determined based on weight (mL/100 g BW). Furthermore, acid concentration of gastric fluid (mmol/mL) was determined by back titration using COM-1600ST automatic titrator (Hitachi High-Technologies Corporation (Hiranuma sangyo Co., Ltd.)).

[4] = target: somatostatin receptor subtype 3 (SSTR3) (Homo sapiens, UniProt P32745); conditions: reported in background art; cited from earlier work
Sequence of somatostatin receptor subtype 3 (SSTR3) (P32745 whole entry, species assumed): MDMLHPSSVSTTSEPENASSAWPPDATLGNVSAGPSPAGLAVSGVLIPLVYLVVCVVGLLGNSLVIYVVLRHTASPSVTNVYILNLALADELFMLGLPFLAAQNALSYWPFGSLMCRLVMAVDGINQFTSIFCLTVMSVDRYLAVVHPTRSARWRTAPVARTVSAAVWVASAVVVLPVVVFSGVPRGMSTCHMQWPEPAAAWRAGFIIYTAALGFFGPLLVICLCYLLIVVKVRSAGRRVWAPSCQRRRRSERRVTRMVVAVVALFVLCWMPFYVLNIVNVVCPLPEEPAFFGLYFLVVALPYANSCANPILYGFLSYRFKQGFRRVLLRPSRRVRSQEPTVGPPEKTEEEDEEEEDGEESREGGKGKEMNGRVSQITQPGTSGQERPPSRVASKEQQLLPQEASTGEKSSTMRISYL

[5] = target: somatostatin receptor subtype 1 (SSTR1) (Homo sapiens, UniProt P30872); conditions: reported in background art; cited from earlier work
Sequence of somatostatin receptor subtype 1 (SSTR1) (P30872 whole entry, species assumed): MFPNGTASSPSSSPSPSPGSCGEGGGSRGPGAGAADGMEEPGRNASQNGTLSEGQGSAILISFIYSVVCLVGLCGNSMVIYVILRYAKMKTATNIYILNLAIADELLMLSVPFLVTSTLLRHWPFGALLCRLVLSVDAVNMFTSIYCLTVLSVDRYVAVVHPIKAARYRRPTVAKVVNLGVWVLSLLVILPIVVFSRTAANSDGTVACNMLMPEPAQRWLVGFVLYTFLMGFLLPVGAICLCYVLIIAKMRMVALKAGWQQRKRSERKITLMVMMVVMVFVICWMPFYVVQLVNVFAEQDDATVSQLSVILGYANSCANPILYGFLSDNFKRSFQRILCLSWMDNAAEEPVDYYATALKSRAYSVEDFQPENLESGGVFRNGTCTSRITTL

[6] = target: somatostatin receptor subtype 4 (SSTR4) (Homo sapiens, UniProt P31391); conditions: reported in background art; cited from earlier work
Sequence of somatostatin receptor subtype 4 (SSTR4) (P31391 whole entry, species assumed): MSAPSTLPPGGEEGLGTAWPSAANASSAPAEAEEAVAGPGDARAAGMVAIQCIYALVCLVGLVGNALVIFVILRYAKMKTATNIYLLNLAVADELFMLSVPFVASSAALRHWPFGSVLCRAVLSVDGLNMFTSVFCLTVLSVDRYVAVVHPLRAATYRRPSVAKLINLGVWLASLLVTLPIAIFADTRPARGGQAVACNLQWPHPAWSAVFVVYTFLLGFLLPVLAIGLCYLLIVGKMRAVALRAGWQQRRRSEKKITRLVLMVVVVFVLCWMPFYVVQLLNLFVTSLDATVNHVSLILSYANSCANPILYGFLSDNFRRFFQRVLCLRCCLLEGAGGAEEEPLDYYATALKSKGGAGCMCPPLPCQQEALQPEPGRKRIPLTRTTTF

[7] = target: somatostatin receptor subtype 2 (SSTR2) (Homo sapiens, UniProt P30874); conditions: reported in background art; cited from earlier work
Sequence of somatostatin receptor subtype 2 (SSTR2) (P30874 whole entry, species assumed): as the sequence (P30874 whole entry) above

[8] = 1 mg/kg orally, Procedure (B): administered 8 hours before

| SMILES | ratio of GH secretion inhibition [1, 8] [%] | ratio of IC50 (hepatocyte toxicity) divided by SSTR2 agonist activity (EC50) [2] | IC50 at 24 h [3] [µM] | EC50 (human SSTR2) [nM] | further results |
| --- | --- | --- | --- | --- | --- |
| Cc1cc(F)cc(-c2cncc(/C=C/c3cncc(C#N)c3)c2N2CC[C@H]3NCCO[C@@H]3C2)c1 (racemic) [Example 36(8), 5-[(E)-2-{5-(3-fluoro-5-methylphenyl)-4-[rac-(4aR,8aR)-octahydro-6H-pyrido[3,4-b][1,4]oxazin-6-yl]-3-pyridinyl}vinyl]nicotinonitrile] | 83 | 2,030,000 times | 69 | 0.034 |  |
| Cc1cc(C)cc(NC(=O)c2cncc(-c3cc(C)cc(C)c3)c2N2CCC(CN)CC2)c1 [Example 2(20), 4-[4-(aminomethyl)-1-piperidinyl]-N,5-bis(3,5-dimethylphenyl)pyridine-3-carboxamide] |  | 6,670,000 times | 40 | 0.006 | ratio of GH secretion inhibition ([1]; 3 mg/kg orally, Procedure (A): administered 30 min before): 97%; ratio of gastric acid secretion inhibition (gastric acid secretion): 89% |
| Cc1cc(C)cc(-c2cncc(-c3ccc(C(F)(F)F)cc3)c2N2CCC(N)CC2)c1 [Example 26(15), 1-{3-(3,5-dimethylphenyl)-5-[4-(trifluoromethyl)phenyl]-4-pyridinyl}-4-piperidinamine] |  |  |  |  | ratio of GH secretion inhibition ([1]; 3 mg/kg orally, Procedure (B): administered 8 hours before): 92% |
| Cc1cc(F)cc(-c2cncc(-c3ccc(C(F)(F)F)cc3)c2N2CCC(N)CC2)c1 [Example 26(24), 1-{3-(3-fluoro-5-methylphenyl)-5-[4-(trifluoromethyl)phenyl]-4-pyridinyl}-4-piperidinamine] | 91 | 710,000 times | 35 | 0.049 |  |
| Cc1cc(F)cc(-c2cncc(/C=C/c3cccc(C#N)c3)c2N2CCC(N)CC2)c1 [Example 36(5), 3-{(E)-2-[4-(4-amino-1-piperidinyl)-5-(3-fluoro-5-methylphenyl)-3-pyridinyl]vinyl}benzonitrile] | 92 | 1,190,000 times | 19 | 0.016 |  |
| CC(C)[C@@H]1NC(=O)[C@H](CCCCN)NC(=O)[C@@H](Cc2c[nH]c3ccccc23)NC(=O)[C@H](Cc2ccc(O)cc2)NC(=O)[C@@H](NC(=O)[C@H](N)Cc2ccc3ccccc3c2)CSSC[C@@H](C(=O)N[C@H](C(N)=O)[C@@H](C)O)NC1=O [Lanreotide acetate] |  |  |  |  | binding affinity to SSTR3 (in words) [4]: moderate affinity; binding to SSTR1 (in words) [5]: not to bind; binding to SSTR4 (in words) [6]: not to bind; binding affinity to SSTR2 (in words) [7]: high affinity |
| Cc1cc(C)cc(-c2cnc3cc(Cl)c(-c4cnn(C)c4)cc3c2OCC[C@H]2CCCCN2)c1 [formula (M), reference compound] |  |  | 13 |  |  |
